From patent US4031244A, “Pharmaceutical compositions containing a 1-(2,6-dimethyl-phenoxy)-2-amino-alkane and method of use” (priority 1966, dated 1977)

Experiments:
[1] = tested on: warmblooded animals, such as rats and mice; experiment: Pharmacodynamic properties (anticonvulsive, antiarrhythmic, sedative side effects) in warm-blooded animals; assay type: in vivo; conditions: specific compounds
[2] = Anticonvulsive activity by the electroshock method of Tooman et al; assay type: in vivo, mouse; conditions: in vivo; mouse; LD50 / ED50; read-out: Therapeutic ratio LD50 ED50
From the text: (§1) The anticonvulsive activity of the compounds of the formula I and their non-toxic acid addition salts, as well as of certain isomers and homologs described in the prior art, was as certained by the electroshock method of Tooman et al, J. Neurophysiol.

mouse = experiment: as above; assay type: in vivo; conditions: Mus musculus, read-out: Anticonvulsive ED50
From the text: as §1

in vivo = conditions: po, mouse
From the text: as §1

| Compound | effectiveness as anticonvulsives [1] | selectivity ratio [2] | ED50 (mouse) [mg/kg] | LD50 (in vivo) [mg/kg] |
| --- | --- | --- | --- | --- |
| CCCC(N)COc1c(C)cccc1C (stereo not shown) [1-(2',6'-dimethyl-phenoxy)-2-amino-pentane] | especially effective |  |  |  |
| Cc1cccc(C)c1OCCN [C, 2-(2',6'-xylyloxy)-ethylamine] |  | 6.4 | 115 | 740 |
| CNCCOc1c(C)cccc1C [B, n-methyl-2-(2',6'-xylyloxy)-ethylamine] |  | 2.7 | 80 | 216 |
| Cc1cccc(C)c1OCCCN [D, 3-(2',6'-xylyloxy)-propylamine] |  | 2.7 | 216 | 580 |
| Cc1cccc(C)c1OCC(C)N (stereo not shown) [A, 1-(2',6'-dimethyl-phenoxy)-2-amino-propane] | especially effective |  | 23 |  |
| Cc1cccc(C)c1OCC(C)N.Cl (stereo not shown) [Example 1, 1-(2',6'-dimethyl-phenoxy)-2-amino-propane hydrochloride] | especially effective |  |  |  |
